In patent US20040176474A1 (priority 2003, published 2004):

How the values were obtained:
[1] = Adiabatic compression test; type: physicochemical
Description: Adiabatic Compression Test
This test determines the initiation sensitivity of the material to sudden gas compression, such as liquid inertia compressing entrained gas bubbles during transportation or hydrostatic pressure heads which form when pumping liquid or opening and closing valves. The test is performed with a plunger to rapidly compress gas from a drop height of at least 100 cm within a cylindrical chamber containing the sample. Energy is delivered to the plunger with a drop weight. A failed test is one in which any smoke, discoloration, char, spark or audible report result from the test. Neat propargyl bromide and the single solvent formulation pass the test at drop height of 150 cm in nitrogen and fail the test in air at drop heights of 100 cm and 150 cm.

[2] = UN Test Series 3 overall conclusion; type: physicochemical; settings: sensitivity for transportation
Source text: UN Test Series 3: Drop Impact
Conclusion of UN Tests Series 3 Results:

C#CCBr [neat propargyl bromide, 3-bromopropyne]
Adiabatic compression test result (pass/fail) ([1]; drop height of 150 cm in nitrogen): pass
Adiabatic compression test result (pass/fail) ([1]; in air at drop heights of 100 cm and 150 cm): fail
UN Test Series 3 conclusion [2]: too sensitive to mechanical impact to allow transportation
